Measured values reported in patent US20180298405A1, “METHODS AND COMPOSITIONS TO INCREASE HUMAN SOMATIC CELL NUCLEAR TRANSFER (SCNT) EFFICIENCY BY REMOVING HISTONE H3-LYSINE TRIMETHYLATION, AND DERIVATION OF HUMAN NT-ESC” (CHILDREN'S MEDICAL CENTER CORPORATION, priority 2015, published 2018).

Tested on: reprogramming resistant regions (RRRs) / ZGA genes
Test: RNA-seq of late 8-cell human SCNT embryos with or without KDM4A mRNA injection (ZGA of RRRs, KDM4A-responsive genes)
Assay type: cell-based
Description: A sliding window (size 20 kb, step size 10 kb) was used to assess the genome-wide expression level of 4-cell and 8-cell human embryos. For each window, the expression level was quantified with normalized RPM (reads per millions of uniquely mapped reads). […] These activated regions were classed into three groups based on their expression differences in human SCNT and IVF 8-cell embryos.
The SCNT embryos used for ZGA analysis were generated using oocytes donated by a single healthy person (#64) and dermal fibroblast cells from an AMD patient (DFB-8). SCNT and IVF embryos were cultured up to late 8-cell stage, when the compaction of blastomeres is initiated, then they were treated briefly with acid Tyrode solution to remove zona pellucida. To prepare for the 8-cell SCNT embryo, oocytes from a single oocyte donor, and skin fibroblast cells from a single somatic nuclear donor were used. All the procedures are the same as described in the “Human SCNT procedure and KMD4A mRNA injection” section. Only embryos that reached the late 8-cell stage synchronically 74 hours post activation were collected and used for this experiment.
For preparation of the control IVF embryos, several donated early 8-cell stage IVF embryos were thawed and cultured for 5-7 hours to allow them to reach late 8-cell stage before being processed. After removal of the zona pellucida, the denuded embryos were washed 3 times in PBS, loaded into RNAse and DNAse free PCR tubes, spin downed, and snap frozen in liquid nitrogen. Then, they were kept at −80° C. until use. As controls, dermal fibroblast cells of somatic nuclear donors were also prepared. Those fibroblast cells were cultured in a 25 cm^2 flask in DMEM 10% FBS, and approximately 10,000 cells/donor were collected, snap frozen, and stored at −80° C. until use.
Five 8-cell embryos for each group were directly lysed and used for cDNA synthesis using SMART-Seq v4 Ultra Low Input RNA Kit (Clontech). For MEF donor, 10 ng total RNA was used for cDNA synthesis using SMART-Seq v4 Ultra Low Input RNA Kit. After amplification, the cDNA samples were fragmented using Covaris sonicator M220 to an average size of 150 bp (Covaris). Sequencing libraries were made with the fragmented DNA using NEBNext Ultra DNA Library Prep Kit for Illumina according to manufacturer's instruction (New England Biolabs) with different barcodes. For each RNA-seq analysis of hESCs, 1 μg total RNA was used for mRNA purification. Barcoded RNA-seq libraries were generated using NEBNext Ultra Directional RNA Library Prep Kit for Illumina (New England Biolabs). Single end 50 bp sequencing was performed on a HiSeq 2500 sequencer (Illumina). Sequencing reads were mapped to the human genome (hg19) with Tophat2. All programs were performed with default settings (unless otherwise specified). At least 22 million uniquely mapped reads were obtained for each sequencing library, and subsequently assembled into transcripts guided by the reference annotation (Refseq gene models) with Cufflinks v2.0.2. Expression level of each gene was quantified with normalized FPKM (fragments per kilobase of exon per million mapped fragments). Statistical analyses were performed with R (available at: “www.r-project.org/”). Independent 2 group Wilcoxon rank sum tests were used to compare distributions using the wilcox.test function in R. Pearson's r coefficient was calculated using the cor function with default parameters. The hierarchical clustering analysis of the global gene expression pattern in different samples was carried out using heatmap.2 function (gplots package) in R.

[1] = 8-cell SCNT embryos, FC>2 versus non-injected

KDM4A mRNA: in vitro transcribed mRNA of full length human KDM4A/JHDM3A cDNA, an H3K9me3 demethylase (SEQ ID NO: 1)
fraction of the 318 RRRs markedly up-regulated [1]: 50%
number of the 318 RRRs markedly up-regulated [1]: 158
number of genes significantly up-regulated (KDM4A-responsive genes) (8-cell SCNT embryos, FPKM>5, FC>2): 206
12-Sep Fold Change (log2) [KDM4A SCNT/Control SCNT] (8-cell embryos): 2 log2
AASDH Fold Change (log2) [KDM4A SCNT/Control SCNT] (8-cell embryos): 1.19 log2
ACBD5 Fold Change (log2) [KDM4A SCNT/Control SCNT] (8-cell embryos): 1.32 log2
ALG5 Fold Change (log2) [KDM4A SCNT/Control SCNT] (8-cell embryos): 1.89 log2
ALPPL2 Fold Change (log2) [KDM4A SCNT/Control SCNT] (8-cell embryos): 1.25 log2
APOC1P1 Fold Change (log2) [KDM4A SCNT/Control SCNT] (8-cell embryos): 1.03 log2
ATP5J2-PTCD1 Fold Change (log2) [KDM4A SCNT/Control SCNT] (8-cell embryos): 5.53 log2
BEX2 Fold Change (log2) [KDM4A SCNT/Control SCNT] (8-cell embryos): 1.05 log2
BLVRB Fold Change (log2) [KDM4A SCNT/Control SCNT] (8-cell embryos): 1.56 log2
BTAF1 Fold Change (log2) [KDM4A SCNT/Control SCNT] (8-cell embryos): 1.93 log2
BTK Fold Change (log2) [KDM4A SCNT/Control SCNT] (8-cell embryos): 1.09 log2
BUD31 Fold Change (log2) [KDM4A SCNT/Control SCNT] (8-cell embryos): 1.19 log2
C1D Fold Change (log2) [KDM4A SCNT/Control SCNT] (8-cell embryos): 1.67 log2
C2orf74 Fold Change (log2) [KDM4A SCNT/Control SCNT] (8-cell embryos): 1.28 log2
C11orf67 Fold Change (log2) [KDM4A SCNT/Control SCNT] (8-cell embryos): 1.34 log2
C12orf60 Fold Change (log2) [KDM4A SCNT/Control SCNT] (8-cell embryos): 1.78 log2
C16orf91 Fold Change (log2) [KDM4A SCNT/Control SCNT] (8-cell embryos): 1.24 log2
C17orf89 Fold Change (log2) [KDM4A SCNT/Control SCNT] (8-cell embryos): 1.09 log2
C18orf56 Fold Change (log2) [KDM4A SCNT/Control SCNT] (8-cell embryos): 1.43 log2
C20orf7 Fold Change (log2) [KDM4A SCNT/Control SCNT] (8-cell embryos): 2.14 log2
CAB39L Fold Change (log2) [KDM4A SCNT/Control SCNT] (8-cell embryos): 1.23 log2
CCAR1 Fold Change (log2) [KDM4A SCNT/Control SCNT] (8-cell embryos): 1.15 log2
CCDC86 Fold Change (log2) [KDM4A SCNT/Control SCNT] (8-cell embryos): 1.1 log2
CCL2 Fold Change (log2) [KDM4A SCNT/Control SCNT] (8-cell embryos): 3.05 log2
CCL15 Fold Change (log2) [KDM4A SCNT/Control SCNT] (8-cell embryos): 2.82 log2
CELA3B Fold Change (log2) [KDM4A SCNT/Control SCNT] (8-cell embryos): 1.63 log2
CENPC1 Fold Change (log2) [KDM4A SCNT/Control SCNT] (8-cell embryos): 1.1 log2
CLC Fold Change (log2) [KDM4A SCNT/Control SCNT] (8-cell embryos): 3.69 log2
CLDN6 Fold Change (log2) [KDM4A SCNT/Control SCNT] (8-cell embryos): 1.65 log2
CLK4 Fold Change (log2) [KDM4A SCNT/Control SCNT] (8-cell embryos): 1.21 log2
CNKSR3 Fold Change (log2) [KDM4A SCNT/Control SCNT] (8-cell embryos): 1.48 log2
CNPY4 Fold Change (log2) [KDM4A SCNT/Control SCNT] (8-cell embryos): 1.77 log2
COX7B2 Fold Change (log2) [KDM4A SCNT/Control SCNT] (8-cell embryos): 3.15 log2
COX17 Fold Change (log2) [KDM4A SCNT/Control SCNT] (8-cell embryos): 1.44 log2
CSAG1 Fold Change (log2) [KDM4A SCNT/Control SCNT] (8-cell embryos): 3.27 log2
CSTF3 Fold Change (log2) [KDM4A SCNT/Control SCNT] (8-cell embryos): 1.29 log2
CUL2 Fold Change (log2) [KDM4A SCNT/Control SCNT] (8-cell embryos): 1.29 log2
CXorf61 Fold Change (log2) [KDM4A SCNT/Control SCNT] (8-cell embryos): 2.18 log2
DDX26B Fold Change (log2) [KDM4A SCNT/Control SCNT] (8-cell embryos): 1.14 log2
DEFB122 Fold Change (log2) [KDM4A SCNT/Control SCNT] (8-cell embryos): 1.06 log2
DLEU7 Fold Change (log2) [KDM4A SCNT/Control SCNT] (8-cell embryos): 4.91 log2
DNASE2 Fold Change (log2) [KDM4A SCNT/Control SCNT] (8-cell embryos): 1.11 log2
DRAM1 Fold Change (log2) [KDM4A SCNT/Control SCNT] (8-cell embryos): 1.6 log2
ECE2 Fold Change (log2) [KDM4A SCNT/Control SCNT] (8-cell embryos): 1.09 log2
EIF1AD Fold Change (log2) [KDM4A SCNT/Control SCNT] (8-cell embryos): 1.18 log2
ELL2 Fold Change (log2) [KDM4A SCNT/Control SCNT] (8-cell embryos): 1.01 log2
FAM9A Fold Change (log2) [KDM4A SCNT/Control SCNT] (8-cell embryos): 3.83 log2
FAM19A3 Fold Change (log2) [KDM4A SCNT/Control SCNT] (8-cell embryos): 2.58 log2
FAM83D Fold Change (log2) [KDM4A SCNT/Control SCNT] (8-cell embryos): 1.32 log2
FAM133B Fold Change (log2) [KDM4A SCNT/Control SCNT] (8-cell embryos): 1.1 log2
FAM151A Fold Change (log2) [KDM4A SCNT/Control SCNT] (8-cell embryos): 1.99 log2
FAM162A Fold Change (log2) [KDM4A SCNT/Control SCNT] (8-cell embryos): 1.73 log2
FAM200A Fold Change (log2) [KDM4A SCNT/Control SCNT] (8-cell embryos): 1.17 log2
FASTKD5 Fold Change (log2) [KDM4A SCNT/Control SCNT] (8-cell embryos): 1.05 log2
FBXL12 Fold Change (log2) [KDM4A SCNT/Control SCNT] (8-cell embryos): 1.74 log2
FMR1NB Fold Change (log2) [KDM4A SCNT/Control SCNT] (8-cell embryos): 1.49 log2
FOXN2 Fold Change (log2) [KDM4A SCNT/Control SCNT] (8-cell embryos): 1.29 log2
GALM Fold Change (log2) [KDM4A SCNT/Control SCNT] (8-cell embryos): 1.55 log2
GIP Fold Change (log2) [KDM4A SCNT/Control SCNT] (8-cell embryos): 1.59 log2
GJA1 Fold Change (log2) [KDM4A SCNT/Control SCNT] (8-cell embryos): 1.36 log2
GOLGB1 Fold Change (log2) [KDM4A SCNT/Control SCNT] (8-cell embryos): 1.58 log2
GUCA1B Fold Change (log2) [KDM4A SCNT/Control SCNT] (8-cell embryos): 1.02 log2
GUSBP1 Fold Change (log2) [KDM4A SCNT/Control SCNT] (8-cell embryos): 1.11 log2
GUSBP4 Fold Change (log2) [KDM4A SCNT/Control SCNT] (8-cell embryos): 1.12 log2
H3F3A Fold Change (log2) [KDM4A SCNT/Control SCNT] (8-cell embryos): 1.84 log2
IFI30 Fold Change (log2) [KDM4A SCNT/Control SCNT] (8-cell embryos): 1.05 log2
IL13RA2 Fold Change (log2) [KDM4A SCNT/Control SCNT] (8-cell embryos): 1.85 log2
KHDC1 Fold Change (log2) [KDM4A SCNT/Control SCNT] (8-cell embryos): 1.89 log2
KHDC1L Fold Change (log2) [KDM4A SCNT/Control SCNT] (8-cell embryos): 1.54 log2
KITLG Fold Change (log2) [KDM4A SCNT/Control SCNT] (8-cell embryos): 2.36 log2
KLF17 Fold Change (log2) [KDM4A SCNT/Control SCNT] (8-cell embryos): 1.19 log2
KLK4 Fold Change (log2) [KDM4A SCNT/Control SCNT] (8-cell embryos): 1.68 log2
KLK11 Fold Change (log2) [KDM4A SCNT/Control SCNT] (8-cell embryos): 1.76 log2
KPTN Fold Change (log2) [KDM4A SCNT/Control SCNT] (8-cell embryos): 4.35 log2
LARP6 Fold Change (log2) [KDM4A SCNT/Control SCNT] (8-cell embryos): 1.35 log2
LEMD3 Fold Change (log2) [KDM4A SCNT/Control SCNT] (8-cell embryos): 1.11 log2
LIM2 Fold Change (log2) [KDM4A SCNT/Control SCNT] (8-cell embryos): 1.99 log2
LINC00263 Fold Change (log2) [KDM4A SCNT/Control SCNT] (8-cell embryos): 1.39 log2
LOC284408 Fold Change (log2) [KDM4A SCNT/Control SCNT] (8-cell embryos): 2.24 log2
LOC347411 Fold Change (log2) [KDM4A SCNT/Control SCNT] (8-cell embryos): 1.36 log2
LOC401397 Fold Change (log2) [KDM4A SCNT/Control SCNT] (8-cell embryos): 1.75 log2
LOC643955 Fold Change (log2) [KDM4A SCNT/Control SCNT] (8-cell embryos): 1.44 log2
LOC653513 Fold Change (log2) [KDM4A SCNT/Control SCNT] (8-cell embryos): 2.12 log2
LOC723809 Fold Change (log2) [KDM4A SCNT/Control SCNT] (8-cell embryos): 1.15 log2
LOC100129515 Fold Change (log2) [KDM4A SCNT/Control SCNT] (8-cell embryos): 1.03 log2
LOC100289211 Fold Change (log2) [KDM4A SCNT/Control SCNT] (8-cell embryos): 2.34 log2
LOC100505854 Fold Change (log2) [KDM4A SCNT/Control SCNT] (8-cell embryos): 1.58 log2
LOC100506305 Fold Change (log2) [KDM4A SCNT/Control SCNT] (8-cell embryos): 1.2 log2
LOC100506668 Fold Change (log2) [KDM4A SCNT/Control SCNT] (8-cell embryos): 1.63 log2
LUC7L Fold Change (log2) [KDM4A SCNT/Control SCNT] (8-cell embryos): 1.28 log2
M1 Fold Change (log2) [KDM4A SCNT/Control SCNT] (8-cell embryos): 4.71 log2
MAGEA12 Fold Change (log2) [KDM4A SCNT/Control SCNT] (8-cell embryos): 1.81 log2
MAGEB2 Fold Change (log2) [KDM4A SCNT/Control SCNT] (8-cell embryos): 3.15 log2
MATR3 Fold Change (log2) [KDM4A SCNT/Control SCNT] (8-cell embryos): 1.11 log2
MED31 Fold Change (log2) [KDM4A SCNT/Control SCNT] (8-cell embryos): 1.44 log2
MFSD11 Fold Change (log2) [KDM4A SCNT/Control SCNT] (8-cell embryos): 1.4 log2
MPV17L2 Fold Change (log2) [KDM4A SCNT/Control SCNT] (8-cell embryos): 1.54 log2
MRPL28 Fold Change (log2) [KDM4A SCNT/Control SCNT] (8-cell embryos): 1.59 log2
MTERF Fold Change (log2) [KDM4A SCNT/Control SCNT] (8-cell embryos): 2.39 log2
NANOGNB Fold Change (log2) [KDM4A SCNT/Control SCNT] (8-cell embryos): 1.79 log2
